In article PMC5466365 (Journal of the American Chemical Society, 2016):

What was measured:
Assay type in all cases: biochemical
MeHNL [1] = molecular target: T1, MeHNL (Manihot esculenta, UniProt P52705); assay: benzaldehyde release, A280; conditions: 50 mM citrate pH 5.0
HbHNL [2] = molecular target: T2, HbHNL (Hevea brasiliensis, UniProt P52704); assay: benzaldehyde release, A280; conditions: 50 mM citrate pH 5.0
MeHNL [3] = molecular target: T1, MeHNL; conditions: 5 mM citrate phosphate pH 5
HbHNL [4] = molecular target: T2, HbHNL; conditions: 5 mM citrate phosphate pH 5

T1 sequence (P52705 2-258): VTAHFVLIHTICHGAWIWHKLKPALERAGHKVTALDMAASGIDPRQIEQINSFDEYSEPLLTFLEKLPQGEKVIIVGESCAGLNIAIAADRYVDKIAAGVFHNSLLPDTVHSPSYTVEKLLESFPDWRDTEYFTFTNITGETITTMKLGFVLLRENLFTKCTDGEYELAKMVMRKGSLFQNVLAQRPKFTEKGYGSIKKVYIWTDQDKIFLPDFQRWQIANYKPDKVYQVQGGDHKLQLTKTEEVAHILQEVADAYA
T2 sequence (P52704 whole entry): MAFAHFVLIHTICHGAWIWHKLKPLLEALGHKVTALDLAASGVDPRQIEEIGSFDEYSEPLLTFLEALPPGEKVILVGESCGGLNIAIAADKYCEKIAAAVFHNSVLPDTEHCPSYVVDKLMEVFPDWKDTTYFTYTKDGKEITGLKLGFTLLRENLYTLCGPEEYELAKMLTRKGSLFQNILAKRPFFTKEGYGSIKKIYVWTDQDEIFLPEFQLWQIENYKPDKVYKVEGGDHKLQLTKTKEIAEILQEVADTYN

With `N#CC(O)c1ccccc1` (racemic) [mandelonitrile] the “benzaldehyde release, A280” value (MeHNL [1]) was “They also efficiently cleaved their unnatural substrate mandelonitrile” and the “benzaldehyde release, A280” value (HbHNL [2]) was “They also efficiently cleaved their unnatural substrate mandelonitrile”.

`CC(C)(O)C#N` [acetone cyanohydrin] was tested, and the “HCN release, modified König reaction” value (MeHNL [3]) was “The best substrate is the natural one, acetone cyanohydrin” and the “HCN release, modified König reaction” value (HbHNL [4]) was “The best substrate is the natural one, acetone cyanohydrin”.
